{"source": "ChEMBL document CHEMBL5696442", "about": "“Discovery of type II inhibitors of TGFβ-activated kinase 1 (TAK1) and mitogen-activated protein kinase kinase kinase kinase 2 (MAP4K2)” (J Med Chem, 2015)", "key": {"[1]": {"molecular_target": "Microtubule-associated serine/threonine-protein kinase 3 (Homo sapiens) (UniProt O60307)", "sequence (O60307 whole entry)": "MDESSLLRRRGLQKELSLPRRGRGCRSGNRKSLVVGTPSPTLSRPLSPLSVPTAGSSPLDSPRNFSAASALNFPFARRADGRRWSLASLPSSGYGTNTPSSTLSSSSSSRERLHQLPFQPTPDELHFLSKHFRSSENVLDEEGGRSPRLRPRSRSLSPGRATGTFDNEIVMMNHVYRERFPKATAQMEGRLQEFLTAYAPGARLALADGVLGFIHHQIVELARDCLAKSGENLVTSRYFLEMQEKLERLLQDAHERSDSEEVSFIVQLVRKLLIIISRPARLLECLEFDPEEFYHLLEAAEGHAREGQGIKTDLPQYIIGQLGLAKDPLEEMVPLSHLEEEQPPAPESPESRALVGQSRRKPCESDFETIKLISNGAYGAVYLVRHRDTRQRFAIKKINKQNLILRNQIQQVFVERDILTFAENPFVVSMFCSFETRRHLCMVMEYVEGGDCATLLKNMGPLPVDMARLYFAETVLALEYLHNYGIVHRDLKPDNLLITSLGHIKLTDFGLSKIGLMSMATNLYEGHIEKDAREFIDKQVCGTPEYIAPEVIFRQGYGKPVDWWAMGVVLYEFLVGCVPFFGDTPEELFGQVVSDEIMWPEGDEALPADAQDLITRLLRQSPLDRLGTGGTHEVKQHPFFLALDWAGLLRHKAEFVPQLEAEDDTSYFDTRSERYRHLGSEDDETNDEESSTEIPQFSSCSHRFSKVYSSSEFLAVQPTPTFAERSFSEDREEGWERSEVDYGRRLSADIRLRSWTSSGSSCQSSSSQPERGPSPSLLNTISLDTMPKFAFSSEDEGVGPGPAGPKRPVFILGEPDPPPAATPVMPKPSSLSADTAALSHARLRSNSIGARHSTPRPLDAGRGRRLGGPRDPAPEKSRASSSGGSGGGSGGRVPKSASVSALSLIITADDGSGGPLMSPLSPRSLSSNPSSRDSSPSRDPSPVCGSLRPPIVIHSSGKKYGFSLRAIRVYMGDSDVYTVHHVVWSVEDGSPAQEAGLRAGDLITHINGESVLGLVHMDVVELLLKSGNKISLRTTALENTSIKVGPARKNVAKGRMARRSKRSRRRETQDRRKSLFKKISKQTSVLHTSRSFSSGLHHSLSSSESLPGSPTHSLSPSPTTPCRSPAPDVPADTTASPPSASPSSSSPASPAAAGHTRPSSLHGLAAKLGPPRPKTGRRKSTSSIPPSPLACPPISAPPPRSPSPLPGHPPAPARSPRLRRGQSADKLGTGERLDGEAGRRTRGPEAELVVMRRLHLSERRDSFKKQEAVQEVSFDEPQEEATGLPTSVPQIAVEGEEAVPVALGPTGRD", "experiment": "Inhibition of MAST3 Lys2 labeling site in human Huh-7 cells at 1 uM by KiNativ Profiling analysis relative to control", "assay_type": "cell-based"}, "[2]": {"molecular_target": "Serine/threonine-protein kinase WNK4 (Homo sapiens) (UniProt Q96J92)", "sequence (Q96J92 whole entry)": "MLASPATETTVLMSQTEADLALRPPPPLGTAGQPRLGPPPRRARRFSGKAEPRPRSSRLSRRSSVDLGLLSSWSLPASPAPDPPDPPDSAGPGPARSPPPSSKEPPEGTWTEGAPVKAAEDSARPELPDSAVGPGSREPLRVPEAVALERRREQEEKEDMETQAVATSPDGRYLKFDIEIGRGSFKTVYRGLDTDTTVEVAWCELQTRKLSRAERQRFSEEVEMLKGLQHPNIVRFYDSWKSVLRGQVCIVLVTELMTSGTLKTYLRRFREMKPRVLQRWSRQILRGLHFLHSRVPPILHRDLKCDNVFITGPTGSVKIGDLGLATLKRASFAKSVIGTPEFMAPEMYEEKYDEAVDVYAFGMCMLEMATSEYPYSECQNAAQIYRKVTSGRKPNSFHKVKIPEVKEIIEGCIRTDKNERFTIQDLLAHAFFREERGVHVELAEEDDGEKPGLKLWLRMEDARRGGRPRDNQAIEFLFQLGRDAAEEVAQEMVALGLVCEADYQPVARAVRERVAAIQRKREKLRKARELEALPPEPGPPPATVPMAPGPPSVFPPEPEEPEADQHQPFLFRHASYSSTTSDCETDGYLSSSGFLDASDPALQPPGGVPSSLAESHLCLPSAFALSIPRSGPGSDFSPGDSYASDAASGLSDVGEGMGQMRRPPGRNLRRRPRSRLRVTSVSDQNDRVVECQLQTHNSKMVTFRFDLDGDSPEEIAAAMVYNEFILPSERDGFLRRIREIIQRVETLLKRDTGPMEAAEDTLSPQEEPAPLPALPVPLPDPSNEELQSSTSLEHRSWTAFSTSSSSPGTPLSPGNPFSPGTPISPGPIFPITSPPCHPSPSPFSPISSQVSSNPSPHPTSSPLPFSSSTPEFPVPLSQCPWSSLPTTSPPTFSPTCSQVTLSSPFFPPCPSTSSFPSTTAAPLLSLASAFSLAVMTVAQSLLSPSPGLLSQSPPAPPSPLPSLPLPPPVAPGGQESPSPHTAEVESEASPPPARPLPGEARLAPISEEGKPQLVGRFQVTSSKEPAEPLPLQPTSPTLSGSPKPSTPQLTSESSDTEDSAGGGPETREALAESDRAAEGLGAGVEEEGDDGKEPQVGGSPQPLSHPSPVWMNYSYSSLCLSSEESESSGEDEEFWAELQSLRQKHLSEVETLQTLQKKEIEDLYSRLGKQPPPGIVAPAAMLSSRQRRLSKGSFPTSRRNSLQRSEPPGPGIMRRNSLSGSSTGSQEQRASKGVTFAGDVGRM", "experiment": "Inhibition of Wnk4 Lys2 labeling site in human Huh-7 cells at 1 uM by KiNativ Profiling analysis relative to control", "assay_type": "cell-based"}, "[3]": {"molecular_target": "cAMP-dependent protein kinase catalytic subunit PRKX (Homo sapiens) (UniProt P51817)", "sequence (P51817 whole entry)": "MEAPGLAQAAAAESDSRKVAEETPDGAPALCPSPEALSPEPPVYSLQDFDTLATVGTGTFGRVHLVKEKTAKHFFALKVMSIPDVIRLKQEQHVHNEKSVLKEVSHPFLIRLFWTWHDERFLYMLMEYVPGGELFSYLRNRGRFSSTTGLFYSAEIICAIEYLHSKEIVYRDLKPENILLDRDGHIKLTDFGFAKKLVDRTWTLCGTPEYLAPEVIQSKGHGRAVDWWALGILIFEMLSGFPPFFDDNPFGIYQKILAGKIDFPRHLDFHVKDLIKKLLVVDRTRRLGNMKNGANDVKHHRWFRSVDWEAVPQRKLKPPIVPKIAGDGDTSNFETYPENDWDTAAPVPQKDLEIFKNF", "experiment": "Inhibition of PRKX (unknown origin) at 1 uM by Ambit Kinomescan binding assay relative to control"}, "[4]": {"molecular_target": "NT-3 growth factor receptor (Homo sapiens) (UniProt Q16288)", "sequence (Q16288 32-839 limits assumed)": "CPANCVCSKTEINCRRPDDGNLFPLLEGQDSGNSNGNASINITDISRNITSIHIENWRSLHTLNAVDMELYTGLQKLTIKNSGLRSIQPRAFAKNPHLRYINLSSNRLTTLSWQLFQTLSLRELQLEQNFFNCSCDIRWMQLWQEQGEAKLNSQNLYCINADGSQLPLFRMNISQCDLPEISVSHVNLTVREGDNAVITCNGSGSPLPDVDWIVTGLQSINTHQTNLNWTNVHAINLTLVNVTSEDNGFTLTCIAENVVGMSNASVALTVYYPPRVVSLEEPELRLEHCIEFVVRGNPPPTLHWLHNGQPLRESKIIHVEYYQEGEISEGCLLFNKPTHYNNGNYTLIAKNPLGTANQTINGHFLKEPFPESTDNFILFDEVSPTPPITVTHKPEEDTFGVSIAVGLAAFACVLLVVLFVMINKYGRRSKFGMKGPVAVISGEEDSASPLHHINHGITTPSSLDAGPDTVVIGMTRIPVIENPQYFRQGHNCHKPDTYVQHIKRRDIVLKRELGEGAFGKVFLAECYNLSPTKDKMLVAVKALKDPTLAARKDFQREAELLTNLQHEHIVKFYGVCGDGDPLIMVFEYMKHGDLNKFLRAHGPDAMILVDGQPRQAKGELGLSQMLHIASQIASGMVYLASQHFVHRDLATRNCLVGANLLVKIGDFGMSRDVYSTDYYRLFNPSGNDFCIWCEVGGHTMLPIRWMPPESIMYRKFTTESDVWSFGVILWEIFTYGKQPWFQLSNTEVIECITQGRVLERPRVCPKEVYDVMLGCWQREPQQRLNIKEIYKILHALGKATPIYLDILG", "experiment": "Inhibition of TRKC (unknown origin) at 1 uM by Ambit Kinomescan binding assay relative to control"}, "[5]": {"molecular_target": "T1, Phosphatidylinositol 4,5-bisphosphate 3-kinase catalytic subunit delta isoform (Homo sapiens) (UniProt O00329)", "T1 sequence (whole entry)": "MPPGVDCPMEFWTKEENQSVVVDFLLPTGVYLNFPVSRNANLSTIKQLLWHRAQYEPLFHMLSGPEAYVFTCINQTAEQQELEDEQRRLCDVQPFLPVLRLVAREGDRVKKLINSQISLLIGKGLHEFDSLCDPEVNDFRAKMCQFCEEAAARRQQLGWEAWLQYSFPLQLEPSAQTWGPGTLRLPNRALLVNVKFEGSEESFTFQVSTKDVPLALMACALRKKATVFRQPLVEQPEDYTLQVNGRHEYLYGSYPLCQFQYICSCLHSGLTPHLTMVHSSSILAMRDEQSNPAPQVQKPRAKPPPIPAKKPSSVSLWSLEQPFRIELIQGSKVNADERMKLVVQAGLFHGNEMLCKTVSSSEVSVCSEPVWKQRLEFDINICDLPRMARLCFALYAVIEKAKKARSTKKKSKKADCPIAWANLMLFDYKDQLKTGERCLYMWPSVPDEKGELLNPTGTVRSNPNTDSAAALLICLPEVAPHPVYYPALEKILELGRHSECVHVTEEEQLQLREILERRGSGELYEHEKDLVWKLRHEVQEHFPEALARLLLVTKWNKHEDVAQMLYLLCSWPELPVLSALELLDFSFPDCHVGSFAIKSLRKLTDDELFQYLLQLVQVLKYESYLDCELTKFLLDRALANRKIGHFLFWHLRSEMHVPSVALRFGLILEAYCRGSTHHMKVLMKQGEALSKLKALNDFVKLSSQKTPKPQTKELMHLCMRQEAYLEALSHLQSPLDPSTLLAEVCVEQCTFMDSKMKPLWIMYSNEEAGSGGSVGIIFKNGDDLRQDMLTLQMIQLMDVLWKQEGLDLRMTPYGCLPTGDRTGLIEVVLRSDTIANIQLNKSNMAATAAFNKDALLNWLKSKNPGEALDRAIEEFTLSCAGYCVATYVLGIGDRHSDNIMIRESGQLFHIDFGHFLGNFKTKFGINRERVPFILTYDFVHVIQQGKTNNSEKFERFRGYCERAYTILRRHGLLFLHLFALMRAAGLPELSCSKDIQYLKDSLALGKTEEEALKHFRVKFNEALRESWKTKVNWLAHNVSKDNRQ", "experiment": "Inhibition of PIK3CD (unknown origin) at 10 uM by Ambit Kinomescan binding assay"}, "[6]": {"molecular_target": "T2, Serine/threonine-protein kinase Nek1 (Homo sapiens) (UniProt Q96PY6)", "T2 sequence (whole entry)": "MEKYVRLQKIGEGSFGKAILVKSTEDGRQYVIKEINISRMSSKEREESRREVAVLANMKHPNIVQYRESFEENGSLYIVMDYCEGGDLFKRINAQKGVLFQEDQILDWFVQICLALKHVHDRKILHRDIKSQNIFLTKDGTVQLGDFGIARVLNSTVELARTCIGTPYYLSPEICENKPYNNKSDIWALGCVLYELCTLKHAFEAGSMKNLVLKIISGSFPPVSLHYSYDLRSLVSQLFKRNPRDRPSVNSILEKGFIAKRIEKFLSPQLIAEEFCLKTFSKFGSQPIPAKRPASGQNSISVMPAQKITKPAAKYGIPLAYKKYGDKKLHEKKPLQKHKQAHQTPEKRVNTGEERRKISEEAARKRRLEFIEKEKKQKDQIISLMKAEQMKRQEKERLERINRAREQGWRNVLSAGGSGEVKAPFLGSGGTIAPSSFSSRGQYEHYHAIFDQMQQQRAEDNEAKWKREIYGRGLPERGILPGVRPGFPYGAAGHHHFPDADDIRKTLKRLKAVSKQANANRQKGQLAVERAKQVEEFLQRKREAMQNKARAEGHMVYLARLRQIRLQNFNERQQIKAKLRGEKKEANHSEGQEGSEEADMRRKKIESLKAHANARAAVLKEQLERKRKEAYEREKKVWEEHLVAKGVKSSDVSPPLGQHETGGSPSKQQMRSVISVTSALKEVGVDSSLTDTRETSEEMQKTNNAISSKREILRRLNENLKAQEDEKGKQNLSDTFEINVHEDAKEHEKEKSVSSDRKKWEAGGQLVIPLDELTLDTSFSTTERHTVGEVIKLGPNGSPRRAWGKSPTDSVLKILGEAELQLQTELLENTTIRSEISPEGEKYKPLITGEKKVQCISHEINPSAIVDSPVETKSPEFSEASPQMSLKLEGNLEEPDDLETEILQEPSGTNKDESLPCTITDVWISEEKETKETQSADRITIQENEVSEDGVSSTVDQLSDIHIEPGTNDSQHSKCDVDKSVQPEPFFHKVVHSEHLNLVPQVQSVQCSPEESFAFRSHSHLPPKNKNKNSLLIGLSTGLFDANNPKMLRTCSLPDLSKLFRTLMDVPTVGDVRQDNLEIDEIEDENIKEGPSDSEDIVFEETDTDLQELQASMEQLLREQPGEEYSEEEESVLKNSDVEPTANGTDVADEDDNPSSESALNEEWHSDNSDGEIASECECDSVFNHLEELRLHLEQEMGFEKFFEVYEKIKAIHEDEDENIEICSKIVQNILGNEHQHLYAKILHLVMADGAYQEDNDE", "experiment": "Inhibition of NEK1 Lys2 labeling site in human A-375 cells at 0.05 uM by KiNativ Profiling analysis relative to control", "assay_type": "cell-based"}}, "note": "Calls of active or inactive are those of the source. No cut-off for these calls is given here.", "data": [{"molecule": "CNc1cc(Oc2cc(C(=O)Nc3cc(N4CCN(C)CC4)cc(C(F)(F)F)c3)ccc2C)ncn1", "values": [{"measurement": "inhibition", "setting": "[1]", "result": 14.9, "unit": "%"}, {"measurement": "inhibition", "setting": "[2]", "result": 44.2, "unit": "%"}]}, {"molecule": "CCN1CCN(Cc2ccc(NC(=O)c3ccc(C)c(/C=C/c4cnc5[nH]ccc5c4OC)c3)cc2C(F)(F)F)CC1", "values": [{"measurement": "inhibition", "setting": "[3]", "result": 57, "unit": "%"}, {"measurement": "inhibition", "setting": "[4]", "result": 47, "unit": "%"}]}, {"molecule": "CCN1CCN(Cc2ccc(NC(=O)c3ccc(C)c(Oc4ccnc5[nH]ccc45)c3)cc2C(F)(F)F)CC1", "values": [{"measurement": "inhibition", "setting": "[5]", "result": "inactive"}, {"measurement": "inhibition", "setting": "[6]", "result": -7.1, "unit": "%"}]}]}
